Laboratory results published in patent US20240052582A1, “COMPOSTABLE TURF WITH DECOMPOSITION INHIBITOR” (Polytex Sportbelage Produktions-GmbH, priority 2017, published 2024).

Assay: Amount of decomposition inhibitor necessary for a minimum life expectancy of compostable artificial or hybrid turf
Details: inhibitor within backing
Description: Due to the wide variety of use case scenarios, stadium architectures and climatic conditions, the amount of decomposition inhibitor that ensures a sufficient life expectancy without unduly delaying the decomposition process is preferably determined empirically.

With `Oc1cc(Cl)ccc1Oc1ccc(Cl)cc1Cl` [Triclosan, 5-chlor-2-(2,4-dichlorphenoxy)-phenol] as the molecule, how does the “Amount of Decomposition inhibitor necessary for a life expectancy of the turf material of at least [. . .] 6 Month” value (life expectancy at least 6 Month) read?
Its value is 0.0005% by % by weight of backing.

And the “Amount of Decomposition inhibitor necessary for a life expectancy of the turf material of at least [. . .] 12 Month” value (life expectancy at least 12 Month)?
Its value is 0.001% by % by weight of backing.
